Tests used:
[1] = test system: phospho-ERK in A549 (KRAS G12S) cells; experiment: Cell-based pERK (pERK:tERK) in A549 cells; design: A549-pERK 10 uM, 2 h: unit not given here; settings: for A549-pERK (10 nM, 2 h): phospho- to total protein ratio normalized to DMSO control (Table 9); for pERK:tERK (10 nM 2 h A549): Phospho-ERK Screen in A549 (KRAS G12S), head 10 nM 2 h, title 10 μM for 2 hours
How it was run: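 A549 cells in 6-well plates were treated with compound at a predetermined concentration for 2 hours at 37 °C. Lysates were then normalised by Bradford protein assay to 1 mg/mL for pERK. Phospho-ERK and total ERK were detected by Western blot with IRDye secondary antibodies and quantified by LI-COR Odyssey imaging.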

CYP3A4 = CYP3A4 (Homo sapiens, UniProt P08684); experiment: CYP450 panel inhibition in human liver microsomes, 3A4 (midazolam / testosterone); settings: 10 μM; for CYP-3A4 (Midazolam) mean percentage CYP inhibition: substrate midazolam; for CYP-3A4 (Testosterone) mean percentage CYP inhibition: substrate testosterone
Caco-2 cells = experiment: Caco-2 bidirectional permeability (absorption & efflux); settings: Example 47
CYP2D6 = CYP2D6 (Homo sapiens, UniProt P10635); experiment: CYP450 panel inhibition in human liver microsomes, 2D6 (dextromethorphan); settings: 10 μM, substrate dextromethorphan
PAMPA (pH 7.4) = assay type: in vitro ADME; settings: pH = 7.4
Protocol: Each stock solution was diluted to 50 M in pH 7.4 Prisma HT buffer (pION) and 200 μl was added to each well of the donor plate in triplicate. The polyvinylidene fluoride (PVDF, 0.45 μm) filter membrane on the acceptor plate was coated with 5 μl gastrointestinal tract lipid formulation (GIT-0, pION) and to each well of the acceptor plate, 200 μl of acceptor sink buffer (pION) was added. The acceptor filter plate was then carefully placed on top of the donor plate to form a sandwich. The sandwich was incubated at 25° C. for 4 h without stirring. UV-vis spectra of the solutions in the blank, reference, acceptor and donor plates were measured using a microplate reader (Tecan Infinite 200PRO M Nano Plus). Permeability values were calculated using the PAMPA explorer software v.

CYP3A4, sequence (P08684 whole entry): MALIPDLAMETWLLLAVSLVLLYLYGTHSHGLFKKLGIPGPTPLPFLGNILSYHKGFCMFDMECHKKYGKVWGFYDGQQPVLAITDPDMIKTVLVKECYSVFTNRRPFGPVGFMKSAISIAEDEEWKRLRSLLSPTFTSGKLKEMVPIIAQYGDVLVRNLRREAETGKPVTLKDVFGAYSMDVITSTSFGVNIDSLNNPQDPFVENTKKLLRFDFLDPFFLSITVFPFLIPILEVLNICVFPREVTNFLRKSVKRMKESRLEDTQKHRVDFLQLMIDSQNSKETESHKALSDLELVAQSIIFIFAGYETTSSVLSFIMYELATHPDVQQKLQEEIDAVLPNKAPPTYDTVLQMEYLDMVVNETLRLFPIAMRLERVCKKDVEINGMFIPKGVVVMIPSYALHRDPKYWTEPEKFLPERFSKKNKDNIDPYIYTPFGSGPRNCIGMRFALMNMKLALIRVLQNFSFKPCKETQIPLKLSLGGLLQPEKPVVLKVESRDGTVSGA
CYP2D6, sequence (P10635 whole entry): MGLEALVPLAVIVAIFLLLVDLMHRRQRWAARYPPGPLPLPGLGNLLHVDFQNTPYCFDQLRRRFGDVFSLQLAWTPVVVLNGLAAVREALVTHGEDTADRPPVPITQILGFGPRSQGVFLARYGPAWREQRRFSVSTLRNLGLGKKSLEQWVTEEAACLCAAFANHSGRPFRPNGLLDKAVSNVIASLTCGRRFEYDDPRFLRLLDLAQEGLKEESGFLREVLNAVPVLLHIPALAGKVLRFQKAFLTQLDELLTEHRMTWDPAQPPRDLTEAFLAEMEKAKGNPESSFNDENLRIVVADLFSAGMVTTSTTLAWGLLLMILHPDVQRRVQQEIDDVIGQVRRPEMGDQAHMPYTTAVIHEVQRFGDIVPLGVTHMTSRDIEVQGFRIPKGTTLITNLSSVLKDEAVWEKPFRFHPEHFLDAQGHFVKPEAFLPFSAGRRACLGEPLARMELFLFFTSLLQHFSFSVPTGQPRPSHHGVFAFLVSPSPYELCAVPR

Row | SMILES | A549-pERK (10 nM, 2 h) ([1]; 10 nM, 2 h) | pERK:tERK (10 nM 2 h A549) [1] | CYP-3A4 (Midazolam) mean percentage CYP inhibition (CYP3A4) | CYP-3A4 (Testosterone) mean percentage CYP inhibition (CYP3A4) | A − B Permeability Ranking (Caco-2 cells) | Mean Efflux Ratio (Caco-2 cells) | Mean Papp A − B (10^−6 cm/s) (Caco-2 cells) | Mean Papp B − A (10^−6 cm/s) (Caco-2 cells) | CYP-2D6 (Dextromethorphan) mean percentage CYP inhibition (CYP2D6) | A549 pERK:tERK ratio [10 nM; 2 hr] ([1]; 10 nM, 2 hr) | A549-pERK 10 uM, 2 h ([1]; 10 uM, 2 h, phospho- to total protein ratio normalized to DMSO control) | IC50 ([1]; A549, 12-point dose) | PAMPA (pH = 7.4; Papp 10^−6 cm/s) (PAMPA (pH 7.4))
1 | CNS(=O)(=O)Nc1cccc(Cc2c(CN(C)C)c3cc(F)c(OC(=O)N(C)C)cc3oc2=O)c1F [Compound 25] | 66.2 | 66 (n = 2) | 48.5% | 47.2% | Higher | 3.82 | 4.39 10^−6 cm/s | 16.7 10^−6 cm/s | 5.7% |  |  |  | 
2 | CNS(=O)(=O)Nc1cccc(Cc2c(CN(C)C)c3ccc(OC(=O)N(C)C)cc3oc2=O)c1F [Compound 9] | 63.0 | 65 (n = 27) | 9.6% | 30.9% | Higher | 1.32 | 16.4 10^−6 cm/s | 21.7 10^−6 cm/s | 4.4% | 0.62 | 1.205 (mean, n = 2) | 0.0198 µM | 37 10^−6 cm/s
3 | CCS(=O)(=O)Nc1cccc(Cc2c(CN(C)C)c3ccc(OC(=O)N(C)C)cc3oc2=O)c1F [Compound 120] | 77.2 |  | 11.4% | 12.6% | Higher | 0.567 | 21.9 10^−6 cm/s | 12.4 10^−6 cm/s | −1.9% |  |  |  | 
4 | CNS(=O)(=O)Nc1cccc(Cc2c(CN3CCNCC3)c3cc(F)c(OC(=O)N(C)C)cc3oc2=O)c1F [Compound 134] | 33.1 |  | 44.5% | 52.6% | Higher | 2.01 | 3.99 10^−6 cm/s | 8.08 10^−6 cm/s | 0.5% |  |  |  | 

— patent publication US20250179057A1, “MEK IMMUNE ONCOLOGY INHIBITORS AND THERAPEUTIC USES THEREOF” (Immuneering Corporation, priority 2022, published 2025)
